The species entered for data set [1] is Rattus norvegicus. Put plainly: animal or person. Format: functional.
For data set [2], the species on record is Rattus norvegicus. The data set can be described thus: animal or person. The format is functional. This is another data set of the same source.
Description: Effective dose was determined in vivo in male lewis rats by rat adjuvant-induced arthritis assay
Data set [3] in a line: in vivo. The following applies: male, rat, po, 10 mg/kg.
Data set [4] is filed under the species Rattus norvegicus. The data set can be described thus: animal or person. The format is functional. This is another data set of the same source.
Description: Effective dose was determined in vivo in male Dawley rats by rat carrageenan-induced hyperalgesia assay
Data set [5] in a line: in vivo. The following applies: male, rat, po, 20 mg/kg.
The species named for data set [6] is Rattus norvegicus. Put plainly: animal or person. Format: functional. The source holds these as a separate data set.
Data set [7] can be described thus: in vivo. To be noted: male, rat, po, 10 mg/kg. The source holds these as a separate data set.
A short description of data set [8]: in vivo. To be noted: male, rat, iv, 10 mg/kg.
For data set [9], the species on record is Rattus norvegicus. The format is functional, Stomach.
Description: Concentration at which gastric damage will occur was determined in rat
Data set [10] is filed under the species Rattus norvegicus. Put plainly: animal or person. To be noted: read-out: Inhibition.
Description: Percent inhibition was determined in vivo in male Dawley rats at a dose of 10 mg/kg by rat carrageenan-induced hyperalgesia assay

Experimental findings from ChEMBL document CHEMBL1130002, “Synthesis and biological evaluation of the 1,5-diarylpyrazole class of cyclooxygenase-2 inhibitors: identification of 4-[5-(4-methylphenyl)-3-(trifluoromethyl)-1H-pyrazol-1-yl]benze nesulfonamide (SC-58635, celecoxib)” (J Med Chem, 1997) are described below.

What is called ED50 is the dose that gives a 50% effect, or the effect in half of the subjects. Read a low ED50 as greater potency. As for `NS(=O)(=O)c1ccc(-n2nc(C(F)(F)F)c(Cl)c2-c2ccc(Cl)cc2)cc1`, the results for the 50% effective dose (ED50) in the data set listed under Rattus norvegicus [1] and in the data set listed under Rattus norvegicus [2] were 8.8 mg/kg and 0.006 mg/kg, respectively.

What is called half-life is the time in which the quantity being followed falls by half. Turning to `Cc1ccc(-c2cc(C(F)F)nn2-c2ccc(S(N)(=O)=O)cc2)cc1`, the 50% effective dose (ED50) in the data set listed under Rattus norvegicus [1] turned out to be 2.4 mg/kg; in the data set filed under Rattus norvegicus [2], 0.35 mg/kg; in the data set listed under Rattus norvegicus [4], 37.3 mg/kg. In addition, the half-life in the data set “in vivo [3]” was 3.3 h.

`COc1ccc(-c2cc(C(F)F)nn2-c2ccc(S(N)(=O)=O)cc2)cc1`: the values for the median effective dose (ED50) in the data set filed under Rattus norvegicus [1], in the data set listed under Rattus norvegicus [2] and in the data set listed under Rattus norvegicus [4] were 13.7 mg/kg, 0.01 mg/kg and 36 mg/kg, respectively.

On to `NS(=O)(=O)c1ccc(-n2nc(C(F)(F)F)cc2-c2ccc(Cl)cc2)cc1`, for which the results for the median effective dose (ED50) in the data set listed under Rattus norvegicus [1], in the data set listed under Rattus norvegicus [2] and in the data set listed under Rattus norvegicus [6] were 5.4 mg/kg, 0.07 mg/kg and 6.6 mg/kg, respectively. In the data set “in vivo [5]”, this molecule had a half-life of 117 h.

For the molecule `N#Cc1cc(-c2ccc(F)cc2)n(-c2ccc(S(N)(=O)=O)cc2)n1`, the ED50 in the data set listed under Rattus norvegicus [1] worked out at 7.5 mg/kg; in the data set listed under Rattus norvegicus [2] it was 0.51 mg/kg; in the data set filed under Rattus norvegicus [4], 67.1 mg/kg.

For `COc1ccc(-c2cc(C(F)(F)F)nn2-c2ccc(S(N)(=O)=O)cc2)cc1`, the half-life in “in vivo [7]” is 5.6 h.

The molecule `NS(=O)(=O)c1ccc(-n2nc(C(F)F)cc2-c2ccc(Cl)cc2)cc1` gave a half-life in “in vivo [8]” of 4.5 h. The ED50 in the data set filed under Rattus norvegicus [1] turned out to be 13 mg/kg; in the data set listed under Rattus norvegicus [2], 0.63 mg/kg; in the data set listed under Rattus norvegicus [4], 7.7 mg/kg.

The molecule `Cc1ccc(-c2cc(C(F)(F)F)nn2-c2ccc(S(N)(=O)=O)cc2)cc1` [CELECOXIB] had a half-life in the data set “in vivo [8]” of 3.5 h. Also, the 50% effective dose (ED50) in the data set filed under Rattus norvegicus [1] was 7.1 mg/kg; in the data set listed under Rattus norvegicus [2], 0.37 mg/kg; in the data set filed under Rattus norvegicus [4], 34.5 mg/kg.

Take `COc1ccc(-c2cc(C(F)F)nn2-c2ccc(S(N)(=O)=O)cc2)cc1F` [DERACOXIB]: in “in vivo [8]”, the half-life is 3.5 h. In addition, the ED50 in the data set filed under Rattus norvegicus [1] was determined as 18.6 mg/kg; in the data set filed under Rattus norvegicus [2], 0.05 mg/kg; in the data set listed under Rattus norvegicus [4], 33 mg/kg.

With `COc1ccc2c(c1)c(CC(=O)O)c(C)n2C(=O)c1ccc(Cl)cc1` [INDOMETHACIN], the ED50 in the data set listed under Rattus norvegicus [1] came to 1.15 mg/kg; in the data set listed under Rattus norvegicus [2] it was 0.11 mg/kg; in the data set listed under Rattus norvegicus [4] it was 4.1 mg/kg. In the data set listed under Rattus norvegicus [9], this molecule showed a Ulceration of 7 mg/kg.

On to `COc1ccc2cc([C@H](C)C(=O)O)ccc2c1` [NAPROXEN], for which the ED50 in the data set filed under Rattus norvegicus [1] was found to be 1.6 mg/kg. The same molecule gave a Ulceration in the data set listed under Rattus norvegicus [9] of 255 mg/kg. The inhibition in vivo at 10 mg/kg in the data set filed under Rattus norvegicus [10] was determined as 66%.

In turn, `CN1C(C(=O)Nc2ccccn2)=C(O)c2ccccc2S1(=O)=O` [PIROXICAM] displayed an ED50 in the data set listed under Rattus norvegicus [1] of 2.4 mg/kg. The inhibition in vivo at 10 mg/kg in the data set filed under Rattus norvegicus [10] is 52%.

With `CS(=O)(=O)c1ccc(-n2nc(C(F)(F)F)cc2-c2ccc(F)cc2)cc1` [SC-58125], the half-life in “in vivo [8]” is 221 h. Besides, the results for the 50% effective dose (ED50) in the data set filed under Rattus norvegicus [1], in the data set filed under Rattus norvegicus [2] and in the data set filed under Rattus norvegicus [4] were 10.5 mg/kg, 0.41 mg/kg and 58.3 mg/kg, respectively.
